Experimental data as given in ChEMBL document CHEMBL4507259 (2021).

Key:
[1] = molecular target: Sodium-dependent serotonin transporter (Homo sapiens, UniProt P31645); assay: 5-HT transporter (h) CEREP ligand profiling; conditions: filed as antagonist, Compound concentration 10.0 uM
[2] = molecular target: 5-hydroxytryptamine receptor 2B (Homo sapiens, UniProt P41595); assay: 5-HT2B (h) CEREP ligand profiling; conditions: filed as agonist, Compound concentration 10.0 uM
[3] = molecular target: Sodium-dependent noradrenaline transporter (Homo sapiens) (UniProt P23975); assay: norepinephrine transporter (h) CEREP ligand profiling; conditions: filed as antagonist, Compound concentration 10.0 uM
[4] = molecular target: Estrogen receptor (Homo sapiens) (UniProt P03372); assay: Estrogen ER alpha (h) CEREP ligand profiling; conditions: filed as agonist, Compound concentration 10.0 uM
[5] = molecular target: Tyrosine-protein kinase ABL1 (Homo sapiens) (UniProt P00519); conditions: Compound concentration 1000.0 nM
[6] = molecular target: Tyrosine-protein kinase ABL2 (Homo sapiens) (UniProt P42684); conditions: Compound concentration 1000.0 nM
[7] = molecular target: 5'-AMP-activated protein kinase catalytic subunit alpha-2 (Homo sapiens) (UniProt P54646); conditions: Compound concentration 1000.0 nM
[8] = molecular target: Aurora kinase C (Homo sapiens) (UniProt Q9UQB9); conditions: Compound concentration 1000.0 nM
[9] = molecular target: BMP-2-inducible protein kinase (Homo sapiens) (UniProt Q9NSY1); conditions: Compound concentration 1000.0 nM
[10] = molecular target: Bone morphogenetic protein receptor type-1B (Homo sapiens) (UniProt O00238); conditions: Compound concentration 1000.0 nM
[11] = molecular target: Bone morphogenetic protein receptor type-2 (Homo sapiens) (UniProt Q13873); conditions: Compound concentration 1000.0 nM
[12] = molecular target: Calcium/calmodulin-dependent protein kinase kinase 1 (Homo sapiens) (UniProt Q8N5S9); conditions: Compound concentration 1000.0 nM
[13] = molecular target: Cyclin-dependent kinase 8 (Homo sapiens) (UniProt P49336); conditions: Compound concentration 1000.0 nM
[14] = molecular target: Cyclin-dependent kinase-like 2 (Homo sapiens) (UniProt Q92772); conditions: Compound concentration 1000.0 nM
[15] = molecular target: Serine/threonine-protein kinase Chk2 (Homo sapiens) (UniProt O96017); conditions: Compound concentration 1000.0 nM
[16] = molecular target: Casein kinase I isoform gamma-2 (Homo sapiens) (UniProt P78368); conditions: Compound concentration 1000.0 nM
[17] = system: Epidermal growth factor receptor (Homo sapiens), P00533 [UNDEFINED MUTATION]; conditions: Compound concentration 1000.0 nM
[18] = system: Epidermal growth factor receptor (Homo sapiens), P00533 [G719C]; conditions: Compound concentration 1000.0 nM
[19] = system: Epidermal growth factor receptor (Homo sapiens), P00533 [UNDEFINED MUTATION]; conditions: Compound concentration 1000.0 nM; remark: listed apart in the source
[20] = molecular target: Tyrosine-protein kinase Fyn (Homo sapiens) (UniProt P06241); conditions: Compound concentration 1000.0 nM
[21] = molecular target: G protein-coupled receptor kinase 3 (Homo sapiens) (UniProt P35626); conditions: Compound concentration 1000.0 nM
[22] = molecular target: Inhibitor of nuclear factor kappa-B kinase subunit epsilon (Homo sapiens) (UniProt Q14164); conditions: Compound concentration 1000.0 nM
[23] = molecular target: Insulin receptor (Homo sapiens) (UniProt P06213); conditions: Compound concentration 1000.0 nM
[24] = system: Mast/stem cell growth factor receptor Kit (Homo sapiens), P10721 [A829P]; conditions: Compound concentration 1000.0 nM
[25] = molecular target: Mast/stem cell growth factor receptor Kit (Homo sapiens) (UniProt P10721); conditions: Compound concentration 1000.0 nM
[26] = molecular target: Serine/threonine-protein kinase LATS2 (Homo sapiens) (UniProt Q9NRM7); conditions: Compound concentration 1000.0 nM
[27] = molecular target: Mitogen-activated protein kinase kinase kinase 3 (Homo sapiens) (UniProt Q99759); conditions: Compound concentration 1000.0 nM
[28] = molecular target: Serine/threonine-protein kinase MARK1 (Homo sapiens) (UniProt Q9P0L2); conditions: Compound concentration 1000.0 nM
[29] = molecular target: Serine/threonine-protein kinase mTOR (Homo sapiens) (UniProt P42345); conditions: Compound concentration 1000.0 nM
[30] = molecular target: Serine/threonine-protein kinase PAK 4 (Homo sapiens) (UniProt O96013); conditions: Compound concentration 1000.0 nM
[31] = molecular target: Calcium-dependent protein kinase 1 (Plasmodium falciparum) (UniProt P62344); conditions: Compound concentration 1000.0 nM
[32] = system: Phosphatidylinositol 4,5-bisphosphate 3-kinase catalytic subunit alpha isoform (Homo sapiens), P42336 [M1043I]; conditions: Compound concentration 1000.0 nM
[33] = molecular target: Membrane-associated tyrosine- and threonine-specific cdc2-inhibitory kinase (Homo sapiens) (UniProt Q99640); conditions: Compound concentration 1000.0 nM
[34] = molecular target: Serine/threonine-protein kinase PLK1 (Homo sapiens) (UniProt P53350); conditions: Compound concentration 1000.0 nM
[35] = molecular target: Protein-tyrosine kinase 2-beta (Homo sapiens) (UniProt Q14289); conditions: Compound concentration 1000.0 nM
[36] = system: Proto-oncogene tyrosine-protein kinase receptor Ret (Homo sapiens), P07949 [V804L]; conditions: Compound concentration 1000.0 nM
[37] = molecular target: SRSF protein kinase 3 (Homo sapiens) (UniProt Q9UPE1); conditions: Compound concentration 1000.0 nM
[38] = molecular target: Tyrosine-protein kinase TXK (Homo sapiens) (UniProt P42681); conditions: Compound concentration 1000.0 nM
[39] = molecular target: 5-hydroxytryptamine receptor 1B (Homo sapiens) (UniProt P28222); conditions: Compound concentration 10.0 uM
[40] = molecular target: Sodium-dependent dopamine transporter (Homo sapiens, UniProt Q01959); conditions: Compound concentration 10.0 uM
[41] = molecular target: Histamine H3 receptor (Homo sapiens) (UniProt Q9Y5N1); conditions: Compound concentration 10.0 uM
[42] = molecular target: GABA-A receptor; anion channel (Rattus norvegicus) (UniProt O09028+P15431+P18506+P18508+P19969+P20236+P23574+P23576+P28471+P28473+P30191+P62813+P63079+P63138+Q91ZM7+Q9ES14); conditions: Compound concentration 10.0 uM
[43] = molecular target: Sigma intracellular receptor 2 (Homo sapiens, UniProt Q5BJF2); conditions: Compound concentration 10.0 uM

Chain of Phosphatidylinositol 4,5-bisphosphate 3-kinase catalytic subunit alpha isoform (Homo sapiens), P42336 [M1043I] (P42336 whole entry M1043I, canonical isoform): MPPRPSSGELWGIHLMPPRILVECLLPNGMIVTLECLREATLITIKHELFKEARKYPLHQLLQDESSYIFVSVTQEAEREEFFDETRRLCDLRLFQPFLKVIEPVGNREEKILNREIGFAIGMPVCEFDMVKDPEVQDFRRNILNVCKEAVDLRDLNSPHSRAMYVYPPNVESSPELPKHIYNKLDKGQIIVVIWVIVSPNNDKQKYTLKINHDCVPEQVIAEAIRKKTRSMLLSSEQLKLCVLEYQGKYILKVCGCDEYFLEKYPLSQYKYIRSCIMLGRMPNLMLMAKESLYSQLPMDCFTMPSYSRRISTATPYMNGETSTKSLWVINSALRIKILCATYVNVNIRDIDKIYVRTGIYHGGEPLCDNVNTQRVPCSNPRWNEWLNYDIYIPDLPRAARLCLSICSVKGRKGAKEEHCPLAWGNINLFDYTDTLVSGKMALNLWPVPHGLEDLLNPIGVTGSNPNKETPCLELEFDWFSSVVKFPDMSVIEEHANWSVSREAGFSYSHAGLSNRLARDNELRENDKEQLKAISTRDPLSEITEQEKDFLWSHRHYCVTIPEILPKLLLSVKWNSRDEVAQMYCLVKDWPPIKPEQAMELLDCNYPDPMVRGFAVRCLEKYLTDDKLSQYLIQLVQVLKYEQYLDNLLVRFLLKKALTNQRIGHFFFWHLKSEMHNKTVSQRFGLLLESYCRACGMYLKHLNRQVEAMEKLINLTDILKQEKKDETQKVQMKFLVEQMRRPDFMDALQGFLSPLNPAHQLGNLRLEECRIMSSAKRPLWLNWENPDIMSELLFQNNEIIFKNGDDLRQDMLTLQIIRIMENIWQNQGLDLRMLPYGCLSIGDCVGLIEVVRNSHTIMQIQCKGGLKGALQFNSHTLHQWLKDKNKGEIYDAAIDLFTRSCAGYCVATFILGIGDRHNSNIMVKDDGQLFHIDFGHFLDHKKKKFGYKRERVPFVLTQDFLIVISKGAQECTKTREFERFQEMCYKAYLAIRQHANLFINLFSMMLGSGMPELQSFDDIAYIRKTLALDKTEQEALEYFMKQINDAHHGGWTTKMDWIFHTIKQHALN
Chain of Tyrosine-protein kinase ABL2 (Homo sapiens) (P42684 whole entry): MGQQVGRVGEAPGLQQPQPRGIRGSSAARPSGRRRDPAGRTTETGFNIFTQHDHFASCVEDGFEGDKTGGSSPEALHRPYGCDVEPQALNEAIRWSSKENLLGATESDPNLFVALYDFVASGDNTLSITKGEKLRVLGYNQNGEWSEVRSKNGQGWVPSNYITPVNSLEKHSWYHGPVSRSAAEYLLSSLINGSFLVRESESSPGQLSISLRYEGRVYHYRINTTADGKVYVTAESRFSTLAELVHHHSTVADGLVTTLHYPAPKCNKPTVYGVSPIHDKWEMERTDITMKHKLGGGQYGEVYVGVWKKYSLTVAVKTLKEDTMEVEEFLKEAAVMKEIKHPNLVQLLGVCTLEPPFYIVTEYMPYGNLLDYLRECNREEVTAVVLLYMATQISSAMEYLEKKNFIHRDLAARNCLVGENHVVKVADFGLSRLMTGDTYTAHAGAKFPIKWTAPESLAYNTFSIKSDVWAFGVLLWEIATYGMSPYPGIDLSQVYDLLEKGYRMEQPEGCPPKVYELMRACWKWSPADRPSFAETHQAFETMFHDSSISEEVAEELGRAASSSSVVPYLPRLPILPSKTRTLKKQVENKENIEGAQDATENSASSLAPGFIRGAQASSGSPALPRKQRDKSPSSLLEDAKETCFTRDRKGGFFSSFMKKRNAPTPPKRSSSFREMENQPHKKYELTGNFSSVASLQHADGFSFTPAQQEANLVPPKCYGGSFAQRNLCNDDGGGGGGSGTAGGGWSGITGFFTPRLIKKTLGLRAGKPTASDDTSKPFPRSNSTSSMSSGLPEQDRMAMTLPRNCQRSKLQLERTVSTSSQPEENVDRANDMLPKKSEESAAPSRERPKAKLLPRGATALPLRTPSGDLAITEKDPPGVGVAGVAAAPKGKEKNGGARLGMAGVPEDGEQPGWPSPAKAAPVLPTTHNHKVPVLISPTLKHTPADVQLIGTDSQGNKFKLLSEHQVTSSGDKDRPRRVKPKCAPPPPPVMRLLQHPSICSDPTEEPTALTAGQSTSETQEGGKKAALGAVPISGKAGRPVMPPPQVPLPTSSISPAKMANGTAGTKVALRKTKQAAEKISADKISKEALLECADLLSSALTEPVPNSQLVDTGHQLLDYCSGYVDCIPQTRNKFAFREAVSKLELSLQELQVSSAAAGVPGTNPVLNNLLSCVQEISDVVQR
Chain of Calcium/calmodulin-dependent protein kinase kinase 1 (Homo sapiens) (Q8N5S9 whole entry, looked up): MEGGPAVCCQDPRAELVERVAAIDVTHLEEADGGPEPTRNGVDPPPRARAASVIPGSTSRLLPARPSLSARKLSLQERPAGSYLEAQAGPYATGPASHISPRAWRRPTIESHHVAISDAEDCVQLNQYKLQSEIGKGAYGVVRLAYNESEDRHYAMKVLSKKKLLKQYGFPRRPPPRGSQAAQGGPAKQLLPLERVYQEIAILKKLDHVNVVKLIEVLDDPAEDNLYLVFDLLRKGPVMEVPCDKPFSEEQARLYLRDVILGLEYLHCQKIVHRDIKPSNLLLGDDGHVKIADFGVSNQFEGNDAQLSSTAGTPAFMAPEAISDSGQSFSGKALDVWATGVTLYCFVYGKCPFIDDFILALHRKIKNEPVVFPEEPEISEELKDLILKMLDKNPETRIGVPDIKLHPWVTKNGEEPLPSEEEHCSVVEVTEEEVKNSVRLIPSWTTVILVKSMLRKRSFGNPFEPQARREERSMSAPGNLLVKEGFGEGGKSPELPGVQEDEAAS
Chain of Tyrosine-protein kinase ABL1 (Homo sapiens) (P00519 whole entry): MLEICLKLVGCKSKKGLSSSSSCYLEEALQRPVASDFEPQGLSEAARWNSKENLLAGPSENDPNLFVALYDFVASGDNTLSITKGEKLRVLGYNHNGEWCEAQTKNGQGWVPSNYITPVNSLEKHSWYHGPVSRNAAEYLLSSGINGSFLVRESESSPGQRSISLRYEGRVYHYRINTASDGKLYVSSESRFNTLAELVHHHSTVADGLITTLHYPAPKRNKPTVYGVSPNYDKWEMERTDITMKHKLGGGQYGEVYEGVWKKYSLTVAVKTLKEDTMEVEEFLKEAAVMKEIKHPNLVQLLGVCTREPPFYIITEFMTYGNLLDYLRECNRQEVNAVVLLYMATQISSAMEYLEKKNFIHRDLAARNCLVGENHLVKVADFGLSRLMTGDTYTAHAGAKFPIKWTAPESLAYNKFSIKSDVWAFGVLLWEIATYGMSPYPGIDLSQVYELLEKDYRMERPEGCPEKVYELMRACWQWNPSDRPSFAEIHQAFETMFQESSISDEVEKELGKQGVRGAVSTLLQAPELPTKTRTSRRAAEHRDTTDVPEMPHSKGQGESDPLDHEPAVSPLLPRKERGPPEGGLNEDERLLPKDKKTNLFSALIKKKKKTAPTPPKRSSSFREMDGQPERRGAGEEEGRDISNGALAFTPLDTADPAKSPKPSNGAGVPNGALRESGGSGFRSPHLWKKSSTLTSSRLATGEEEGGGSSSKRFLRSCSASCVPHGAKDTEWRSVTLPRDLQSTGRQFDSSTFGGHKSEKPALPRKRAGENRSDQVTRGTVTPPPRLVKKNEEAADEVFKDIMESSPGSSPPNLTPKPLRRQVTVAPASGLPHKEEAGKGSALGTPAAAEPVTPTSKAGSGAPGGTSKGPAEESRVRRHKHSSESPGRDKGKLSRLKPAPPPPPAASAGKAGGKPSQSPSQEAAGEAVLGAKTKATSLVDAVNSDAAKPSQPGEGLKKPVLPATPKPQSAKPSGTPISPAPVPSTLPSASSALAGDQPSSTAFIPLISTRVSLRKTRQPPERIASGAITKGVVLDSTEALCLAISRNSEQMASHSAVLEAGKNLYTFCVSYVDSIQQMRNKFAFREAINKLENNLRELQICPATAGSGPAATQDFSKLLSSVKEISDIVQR
Chain of Proto-oncogene tyrosine-protein kinase receptor Ret (Homo sapiens), P07949 [V804L] (P07949 whole entry V804L): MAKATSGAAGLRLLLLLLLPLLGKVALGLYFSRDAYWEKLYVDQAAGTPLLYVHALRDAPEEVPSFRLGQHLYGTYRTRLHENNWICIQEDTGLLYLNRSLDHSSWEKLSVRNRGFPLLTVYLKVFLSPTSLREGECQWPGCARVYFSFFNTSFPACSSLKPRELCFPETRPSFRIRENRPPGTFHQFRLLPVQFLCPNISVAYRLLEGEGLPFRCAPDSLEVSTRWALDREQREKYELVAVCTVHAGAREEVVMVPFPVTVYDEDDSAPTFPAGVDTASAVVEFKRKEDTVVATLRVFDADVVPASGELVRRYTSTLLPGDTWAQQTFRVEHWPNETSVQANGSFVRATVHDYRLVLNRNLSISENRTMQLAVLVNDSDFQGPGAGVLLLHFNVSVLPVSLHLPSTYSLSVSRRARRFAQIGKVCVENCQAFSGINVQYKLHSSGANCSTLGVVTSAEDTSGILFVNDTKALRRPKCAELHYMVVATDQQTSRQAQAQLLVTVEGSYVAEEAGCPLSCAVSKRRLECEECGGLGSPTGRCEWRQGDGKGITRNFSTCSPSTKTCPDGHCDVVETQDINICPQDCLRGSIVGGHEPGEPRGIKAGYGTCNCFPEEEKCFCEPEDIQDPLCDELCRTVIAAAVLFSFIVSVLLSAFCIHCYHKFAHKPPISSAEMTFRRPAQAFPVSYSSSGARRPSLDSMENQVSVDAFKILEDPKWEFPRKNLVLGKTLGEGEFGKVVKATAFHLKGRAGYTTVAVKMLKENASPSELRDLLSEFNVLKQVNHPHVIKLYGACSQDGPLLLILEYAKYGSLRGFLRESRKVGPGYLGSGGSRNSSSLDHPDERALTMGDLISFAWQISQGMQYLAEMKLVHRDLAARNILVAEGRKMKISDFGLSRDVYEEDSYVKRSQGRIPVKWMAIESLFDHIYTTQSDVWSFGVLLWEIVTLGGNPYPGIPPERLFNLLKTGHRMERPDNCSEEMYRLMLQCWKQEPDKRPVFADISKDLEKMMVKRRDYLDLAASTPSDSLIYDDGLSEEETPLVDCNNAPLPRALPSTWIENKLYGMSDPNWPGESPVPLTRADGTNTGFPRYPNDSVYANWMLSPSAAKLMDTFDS

CNC(=O)Nc1ccc2c(c1)[C@@]1(CC2)OC(=O)N(CC(=O)N(Cc2ccc(F)cc2)[C@@H](C)C(F)(F)F)C1=O [A-486]
inhibition [1]: 40%
inhibition [2]: 5%
inhibition [3]: 4%
inhibition [4]: -10%
residual activity [5]: 93%
residual activity [6]: 84%
residual activity [7]: 57%
residual activity [8]: 100%
residual activity [9]: 100%
residual activity [10]: 100%
residual activity [11]: 100%
residual activity [12]: 100%
residual activity [13]: 96%
residual activity [14]: 83%
residual activity [15]: 100%
residual activity [16]: 100%
residual activity [17]: 85%
residual activity [18]: 100%
residual activity [19]: 85%
residual activity [20]: 79%
residual activity [21]: 100%
residual activity [22]: 75%
residual activity [23]: 73%
residual activity [24]: 100%
residual activity [25]: 89%
residual activity [26]: 68%
residual activity [27]: 75%
residual activity [28]: 100%
residual activity [29]: 100%
residual activity [30]: 95%
residual activity [31]: 93%
residual activity [32]: 100%
residual activity [33]: 92%
residual activity [34]: 82%
residual activity [35]: 83%
residual activity [36]: 94%
residual activity [37]: 100%
residual activity [38]: 100%
inhibition [39]: 11.2%
inhibition [40]: -6.45%
inhibition [41]: 13.2%
inhibition [42]: 15.6%
inhibition [43]: 55.5%

CNC(=O)Nc1ccc2c(c1)CC[C@@]21OC(=O)N(CC(=O)N(Cc2ccc(F)cc2)[C@@H](C)C(F)(F)F)C1=O [A-485]
inhibition [1]: 99%
inhibition [2]: 73%
inhibition [3]: 12%
inhibition [4]: 5%
residual activity [5]: 84%
residual activity [6]: 88%
residual activity [7]: 99%
residual activity [8]: 100%
residual activity [9]: 98%
residual activity [10]: 82%
residual activity [11]: 100%
residual activity [12]: 70%
residual activity [13]: 100%
residual activity [14]: 100%
residual activity [15]: 100%
residual activity [16]: 87%
residual activity [17]: 67%
residual activity [18]: 97%
residual activity [19]: 64%
residual activity [20]: 100%
residual activity [21]: 100%
residual activity [22]: 51%
residual activity [23]: 81%
residual activity [24]: 79%
residual activity [25]: 97%
residual activity [26]: 47%
residual activity [27]: 86%
residual activity [28]: 89%
residual activity [29]: 92%
residual activity [30]: 89%
residual activity [31]: 83%
residual activity [32]: 100%
residual activity [33]: 74%
residual activity [34]: 63%
residual activity [35]: 73%
residual activity [36]: 91%
residual activity [37]: 95%
residual activity [38]: 78%
inhibition [39]: 9.82%
inhibition [40]: 63.9%
inhibition [41]: 0.39%
inhibition [42]: 19.7%
inhibition [43]: 50%
